From patent publication US20240016748A1, “DIRECT DELIVERY OF VITAMINS TO INHIBIT MICROBIAL PATHOGENS” (DSM IP ASSETS B.V., priority 2020, published 2024) come the findings set out here.

In test [1] the test system is Salmonella enteritidis. Kind of test: Short-term pathogen challenge test, Salmonella enteritidis. As to conditions: positive control, 125 ppm; 48 h colonic incubation. Format: cell-based.
Test [2] relates to adherent-invasive E. coli (AIEC). Kind of test: Short-term pathogen challenge test, AIEC. As to conditions: positive control, 125 ppm; 48 h colonic incubation. Format: cell-based, Escherichia coli.

Consider `O=C(O)c1cn(C2CC2)c2cc(N3CCNCC3)c(F)cc2c1=O` [ciprofloxacin], for which the “abundance of Salmonella enteritidis” value in test [1] was “strongly decreased abundance of Salmonella enteritidis”. Further, the “abundance of AIEC” value in test [2] is recorded as “decreased abundance of AIEC”.
